Assay results: patent US20030065292A1, “Ozonated medical devices and methods of using ozone to prevent complications from indwelling medical devices” (priority 2001, published 2003)

Legend:
[1] = system: Escherichia coli strain 2131; experiment: Ozone killing of microorganisms in solution; format: cell-based; details: 25° C.
Experimental: A clinical isolate of Escherichia coli strain 2131 that had caused catheter-related infection was used. The organism was grown overnight in tryptic soy broth (TSB) at 37° C., then diluted to a concentration of 10^4 cfU/ml of normal saline. A 120 ml aliquot of the 10^4 cfU/ml working bacterial suspension was placed in each of two beakers at 25° C.: (1) In the experimental arm, ozone was bubbled into the bacterial suspension; (2) In the control arm, no ozone was bubbled. Four hours later, three samples of the bacterial suspension in each beaker and serial dilutions were inoculated onto blood agar plates. Colony counts were determined at 24 hours after incubation of the agar plates at 37° C. The following table summarizes the results of cultures: […]

[2] = system: Escherichia coli strain 2131; experiment: Ozone killing of microorganisms on catheter surfaces; format: cell-based
Experimental: A clinical isolate of Escherichia coli strain 2131 that had caused catheter-related infection was used. The organism was grown overnight in tryptic soy broth (TSB) at 37° C., then diluted to a concentration of 10^4 cfu/ml of TSB. The lumens of four 7-french, 20 -cm, triple-lumen polyurethane central venous catheters were filled with this working bacterial suspension and the catheters were then incubated at 25° C. for 4 hours. After draining the bacterial suspension from the lumens of catheters, the lumens were flushed with 1 ml of sterile normal saline. Using a closed dynamic flow system, the lumens of the four catheters were continually perfused for 4 hours at 25° C. with a recirculating total volume of 3 ml of sterile normal saline at a flow rate of 0.1 ml/minute. Ozone was continuously bubbled into the beaker containing the saline perfusing the lumens of two catheters (experimental arm), but no ozone was bubbled into the beaker containing the saline perfusing the lumens of the other two catheters (control arm). Four hours later, two 2 -cm segments from each of the four catheters (two in the experimental arm, and two in the control arm) were cultured onto blood agar plates using the sonication technique. Samples of the saline running through the experimental and control catheters were also inoculated onto blood agar plates. Colony counts were determined at 24 hours after incubation of the agar plates at 37° C. The following table summarizes the results of cultures of catheter segments: […]

## O=[O+][O-] [ozone]
[1]; experimental arm: ozone bubbled into 10^4 cfu/ml bacterial suspension in normal saline, sampled four hours later, colony counts at 24 hours
  Number of E. coli colony forming units per ml (cfu/ml): 0 cfu/ml
[1]; ozone bubbled into bacterial suspension, 4 hours
  Ozone killing of E. coli in solution (result in words): kills E. coli in solution
[2]; experimental arm: catheter lumens perfused 4 hours at 25° C. with saline continuously bubbled with ozone, sonication technique
  Number of E. coli colony forming units cultured from 2-cm catheter segments: 0 colony forming units
[2]; lumens perfused 4 hours with ozone-bubbled saline
  Ozone killing of E. coli adhered to catheter surface (result in words): kills E. coli that has adhered to the catheter surface
[2]; ozone-bubbled saline after 4 hours perfusion, control 42×10^2 cfu/ml
  Concentration of E. coli in the saline solution used to perfuse the infected lumens of catheters: 9×10^2 cfu/ml
